Key:
[1] = test system: NIH-3T3 cell; test: stability in 50 mM Tris-HCl at 37° C., residual activity by MTT assay; format: physicochemical; conditions: 50 mM Tris-HCl pH 8.0, 37° C., days 0-100, relative to day 0, FIG. 5
Procedure: To evaluate stability of the purified acetyl decapeptide of Example 10, the decapeptide and acetyl decapeptide were dissolved in 50 mM Tris-HCl (pH 8.0) to a concentration of 10 μg/ml. A recombinant bFGF produced E. coli (Sigma-Aldrich) was prepared as a control in the same buffer to a concentration of 1 μg/ml. The prepared solutions were introduced into glass vials and kept to stand at 37° C. Afterwards, the solutions were taken on days 0, 1, 10, 25, 50, 75 and 100 and subjected to MTT assay (Scudiero, D. A., et al. Cancer Res. 48:4827-4833 (1988)) using NIH-3T3 cell (Korean Cell Line Bank) to determine residual activities of peptides and bFGF (FIG. 5). The results were given as relative values to the activity (100%) of sample taken on day 0.

[2] = test system: procollagen; test: procollagen level in HaCaT cells (Procollagen ELISA kit); format: cell-based, human; conditions: 1 μg/ml, FIG. 8
Procedure: (§1) Furthermore, HaCaT cell line was treated with the acetyl-decapeptide of this invention (1 μg/ml) and the level of procollagen, one of indicators to show the improvement in skin wrinkle, was examined (FIG. 8). The level of procollagen was measured using Procollagen ELISA kit (Takara). For verifying effects on levels of laminin and hyaluronic acid, another indicator representing the improvement in skin wrinkle, HaCaT cell line was incubated with the acetyl-decapeptide of this invention (1 μmole) and levels of laminin and hyaluronic acid were measured using Laminin ELISA kit (CHEMICON, USA) and Hyaluronic acid ELISA kit (Echelon Biosciences Inc, USA), respectively (FIG. 9).

[3] = test system: hyaluronic acid; test: hyaluronic acid level in HaCaT cells (Hyaluronic acid ELISA kit); format: cell-based, human; conditions: 1 μmole, FIG. 9
Procedure: as §1

[4] = test system: 3T3 fibroblast; test: [3H]-thymidine incorporation in 3T3 fibroblast; format: cell-based; conditions: 3T3 cells, 2 ng/ml serially diluted two-fold, FIG. 4
Procedure: The biological activities of the purified acetyl-decapepetide of Example 10 were evaluated using 3T3 fibroblast (The Korean Cell Line Bank) according to Rizzino et al method to measure [^3H]-thymidine incorporation (Rizzino, et al. Cancer Res., 48:4266 (1988)). 3T3 cells were cultured in 250 ml-flasks containing EMEM (Eagle's minimal essential media, Gibco, U.S.A.) supplemented with […] (fetal bovine serum). 3T3 cells cultured were treated with 0.25% trypsin solution to detach cells from the bottom of culture flasks and centrifuged to collect cell pellets. Cells were resuspended in EMEM not containing FBS, its aliquot, 2×10^4 cells/0.3 ml medium was added to each well of 24-well plates and cultured under 7% CO2 for 24 hr at 37° C. 2 ng/ml of the acetyl decapeptide of this invention was serially diluted by two-fold using EMEM containing 0.2 (w/v) % bovine serum albumin and 0.3 ml of the diluted peptide was added to each well, followed by additional culturing under 7% CO2 for 6 hr at 37° C. Afterwards, 0.5 μCi of [^3H]-thymidine (Amersham, TRK 686, 68 Ci/mmol) was added to each well and incubated overnight. […] The dried filters were added along with 2 ml of scintillation cocktail to scintillation vials and allowed to stand for 30 min at room temperature, after which radioactivity incorporated into cells was determined using a scintillation counter (Beckman, U.S.A).

[5] = test system: HaCaT keratinocytes; test: SRB colorimetric assay of HaCaT keratinocyte growth; format: cell-based, human; conditions: 10 ng/ml or 1,000 ng/ml, 72 hr, FIGS. 6 and 7
Procedure: To analyze effects of peptides of this invention on proliferation of keratinocytes, SRB (Sulforhodamine B) calorimetric assay was carried out using HaCaT kerationcyte according to Rizzino et al method (Rizzino, et al. Cancer Res., 48:4266 (1988)). HaCaT ketatinocytes (The Korean Cell Line Bank) were cultured in 250 ml-flasks containing EMEM (Eagle's minimal essential media, Gibco, U.S.A.) supplemented with […] (fetal bovine serum). HaCaT ketatinocytes cultured were treated with 0.25% trypsin solution to detach cells from the bottom of culture flasks and centrifuged to collect cell pellets. Cells were resuspended in EMEM not containing FBS, its aliquot (4×10^3) cells was added to each well of 96-well plates and cultured under 7% CO2 for 24 hr at 37° C. After 24-hr culture, the medium was changed with a fresh medium not containing serum and cells were incubated with bFGF or the acetyl-decapeptide of Example 10 (10 ng/ml or 1,000 ng/ml) dissolved in 10% DMSO for 72 hr under the same conditions as described above. After removing supernatants, cells were washed once using PBS (phosphate buffered saline) and incubated with SRB solution (Sigma-Aldrich). Cells were washed with PBS and observed under a microscope to find cell viability. In addition, absorbance at 590 nm was measured to analyze cell proliferation (FIG. 6). […]

[6] = test system: receptor of basic fibroblast growth factor; test: competitive binding assay with 125I-labeled bFGF on BHK cells; set-up: species or system hamster; conditions: FIG. 3
Procedure: To examine the binding potency of the purified acetyl-decapepetide of Example 10 to the receptor of basic fibroblast growth factor, the competitive binding assay was carried out using baby hamster kidney cells (BHK, the Korean Cell Line Bank) and ^125I-labeled bFGF (Amersham) according to process proposed by Baird et al. (Baird, et al., Proc. Natl. Acad. Sci. USA, 85:2324-2328 (1988)). Cells were cultured in 48-well plates for tissue culture and washed with cold Ham's F12 medium containing 0.2% gelatin (Sigma-Aldrich). 200 fmol of ^125I-bFGF and 1-100 nmol of acetyl decapeptide were dissolved in 200 μl of buffer and incubated with cells for 2 hr. Following the collection of cells by centrifugation, the cell membranes were isolated using 0.1% Triton X-100 and the radioactivity of ^125I-bFGF bound to receptors on cell membrane was determined using a gamma scintillation counter (Packard, U.S.A) (FIG. 3).

[7] = test system: laminin; test: laminin level in HaCaT cells (Laminin ELISA kit); format: cell-based, human; conditions: 1 μmole, FIG. 9
Procedure: as §1

[8] = test system: Balb C mice; test: hair-growth activity after DHT treatment; format: in vivo; conditions: observed on day 19 after hair removal; DHT 8 days, then 10 days treatment or none
Text: The hairs of the back portions of Balb C mice were removed and a hair loss-inducing substance, dihydrotestosterone (DHT, TCI Inc.) was applied for 8 days to induce […] stage before the proliferation of kerationcytes.

decapeptide: unprotected bFGF-derived decapeptide, presumably the amino acid sequence of SEQ ID NO:1 (YRSRKYTSWY) (peptide having functions and actions of basic fibroblast growth factor)
residual activity over time (stability) [1]: not to be decreased over time

Ac-YRSRKYTSWY-OH [acetyl decapeptide]
level of procollagen in cells [2]: increased in a time-dependent manner | level of hyaluronic acid [3]: induce the elevation of levels of laminin and hyaluronic acid | [3H]-thymidine incorporation into fibroblasts [4]: promotes thymidine incorporation into fibroblasts in a dose-dependent fashion | residual activity over time (stability) [1]: excellent stability | cell viability / proliferation of HaCaT keratinocytes [5]: much higher cell viability than control | binding to bFGF receptor in competition with 125I-bFGF ([6]; 200 fmol 125I-bFGF, 1-100 nmol peptide, 2 hr): binds to bFGF receptor in a competitive manner with bFGF | binding potency to bFGF receptor [6]: higher binding potency | level of laminin [7]: induce the elevation of levels of laminin and hyaluronic acid

recombinant bFGF: recombinant bFGF produced E. coli (Sigma-Aldrich), prepared as a control
residual activity over time (stability) [1]: sharply decreased with the lapse of time

C[C@]12CCC(=O)C[C@@H]1CC[C@@H]1[C@@H]2CC[C@]2(C)[C@@H](O)CC[C@@H]12 [DHT, dihydrotestosterone]
hair growth [8]: hair growth was barely observed

Source: patent publication US7939495B2, “Method for improving skin conditions” (Caregen Co., Ltd, priority 2005, dated 2011)
